Laboratory results: ChEMBL document CHEMBL1136454, “Synthesis and biological activity of N-Acylated ornithine analogues of daptomycin” (Bioorg Med Chem Lett, 2003)
In brackets after ≈: the same amount, converted by molar mass.

How the values were obtained:
Staphylococcus aureus [1] = assay: Antibacterial activity against methicillin resistant Staphylococcus aureus ATCC 43300 (MRSA); assay type: functional
Enterococcus faecium = assay: Antibacterial activity against Enterococcus faecium ATCC 6569; assay type: functional
Staphylococcus aureus [2] = assay: Antibacterial activity against methicillin susceptible Staphylococcus aureus ATCC 29213 (MSSA ); assay type: functional
Enterococcus faecalis = assay: Antibacterial activity against Enterococcus faecalis ATCC 49452; assay type: functional
[3] = In vivo total clearance was determined in murine septicemia at dose of 50 mg/kg; assay type: ADME, organism-based; design: dose 50 mg/kg; details: mouse, read-out: CLtotal (converted)
[4] = In vivo Cmax in mice at dose of 50 mg/kg; assay type: ADME, organism-based; design: dose 50 mg/kg; details: mouse
[5] = In vivo area under curve (AUC) was determined in murine septicemia at dose of 50 mg/kg; assay type: ADME, organism-based; design: dose 50 mg/kg; details: mouse
[6] = In vivo half life period was determined in murine septicemia at dose of 50 mg/kg; assay type: ADME, organism-based; design: dose 50 mg/kg; details: mouse
[7] = In vivo volume distribution (Vd) was determined in murine septicemia at dose of 50 mg/kg; assay type: ADME, organism-based; design: dose 50 mg/kg; details: mouse
[8] = In vivo Tmax was determined in murine septicemia at dose of 50 mg/kg; assay type: ADME, organism-based; design: dose 50 mg/kg; details: mouse
Mus musculus = assay: Antibacterial activity was determined by protection from death of mice infected by methicillin resistant Staphylococcus aureus (MRSA) upon sc administration of compound after 4 hr of post infection; assay type: functional; details: read-out: PD50

| Structure (SMILES) | MIC (Staphylococcus aureus [1]) [µg/mL] | MIC (Enterococcus faecium) [µg/mL] | MIC (Staphylococcus aureus [2]) [µg/mL] | MIC (Enterococcus faecalis) [µg/mL] | clearance [3] [mL/min/kg] | Cmax [4] [µg/mL] | AUC [5] [µg·h/mL] | half-life [6] [h] | Vd [7] [L/kg] | Tmax [8] [h] | ED50 (Mus musculus) [mg/kg] |
| --- | --- | --- | --- | --- | --- | --- | --- | --- | --- | --- | --- |
| CCCCCCCCCC(=O)N[C@@H](Cc1c[nH]c2ccccc12)C(=O)N[C@H](CC(N)=O)C(=O)N[C@@H](CC(=O)O)C(=O)N[C@@H]1C(=O)NCC(=O)N[C@@H](CCCNC(=O)C(C)CC(=O)c2ccccc2N)C(=O)N[C@@H](CC(=O)O)C(=O)N[C@H](C)C(=O)N[C@@H](CC(=O)O)C(=O)NCC(=O)N[C@H](CO)C(=O)N[C@@H]([C@H](C)CC(=O)O)C(=O)N[C@@H](CC(=O)c2ccccc2N)C(=O)O[C@@H]1C (some centres undefined) | 1.56 (≈ 0.862 µM) | 6.25 (≈ 3.45 µM) | 1.56 (≈ 0.862 µM) | 12.5 (≈ 6.91 µM) | – | – | – | – | – | – | – |
| CCCCCCCCCC(=O)N[C@@H](Cc1c[nH]c2ccccc12)C(=O)N[C@H](CC(N)=O)C(=O)N[C@@H](CC(=O)O)C(=O)N[C@@H]1C(=O)NCC(=O)N[C@@H](CCCNC(=O)CCc2c[nH]c3ccccc23)C(=O)N[C@@H](CC(=O)O)C(=O)N[C@H](C)C(=O)N[C@@H](CC(=O)O)C(=O)NCC(=O)N[C@H](CO)C(=O)N[C@@H]([C@H](C)CC(=O)O)C(=O)N[C@@H](CC(=O)c2ccccc2N)C(=O)O[C@@H]1C | 1.56 (≈ 0.871 µM) | 12.5 (≈ 6.98 µM) | 1.56 (≈ 0.871 µM) | 25 (≈ 14 µM) | – | – | – | – | – | – | – |
| CCCCCCCCCC(=O)N[C@@H](Cc1c[nH]c2ccccc12)C(=O)N[C@H](CC(N)=O)C(=O)N[C@@H](CC(=O)O)C(=O)N[C@@H]1C(=O)NCC(=O)N[C@@H](CCCNC(=O)CC(C)(C)C(=O)O)C(=O)N[C@@H](CC(=O)O)C(=O)N[C@H](C)C(=O)N[C@@H](CC(=O)O)C(=O)NCC(=O)N[C@H](CO)C(=O)N[C@@H]([C@H](C)CC(=O)O)C(=O)N[C@@H](CC(=O)c2ccccc2N)C(=O)O[C@@H]1C | 12.5 (≈ 7.15 µM) | 50 (≈ 28.6 µM) | 12.5 (≈ 7.15 µM) | 50 (≈ 28.6 µM) | – | – | – | – | – | – | – |
| CCCCCCCCCC(=O)N[C@@H](Cc1c[nH]c2ccccc12)C(=O)N[C@H](CC(N)=O)C(=O)N[C@@H](CC(=O)O)C(=O)N[C@@H]1C(=O)NCC(=O)N[C@@H](CCCNC(=O)[C@@H](N)CCCCN)C(=O)N[C@@H](CC(=O)O)C(=O)N[C@H](C)C(=O)N[C@@H](CC(=O)O)C(=O)NCC(=O)N[C@H](CO)C(=O)N[C@@H]([C@H](C)CC(=O)O)C(=O)N[C@@H](CC(=O)c2ccccc2N)C(=O)O[C@@H]1C [listing 1 of 2 here] | – | – | – | – | 1.42 | 297 | 589 | 1.2 | 0.147 | 0.5 | – |
| CCCCCCCCCC(=O)N[C@@H](Cc1c[nH]c2ccccc12)C(=O)N[C@H](CC(N)=O)C(=O)N[C@@H](CC(=O)O)C(=O)N[C@@H]1C(=O)NCC(=O)N[C@@H](CCCNC(=O)[C@@H](N)CCCCN)C(=O)N[C@@H](CC(=O)O)C(=O)N[C@H](C)C(=O)N[C@@H](CC(=O)O)C(=O)NCC(=O)N[C@H](CO)C(=O)N[C@@H]([C@H](C)CC(=O)O)C(=O)N[C@@H](CC(=O)c2ccccc2N)C(=O)O[C@@H]1C [listing 2 of 2 here] | 0.78 (≈ 0.446 µM) | – | 1.56 (≈ 0.892 µM) | 6.25 (≈ 3.57 µM) | – | – | – | – | – | – | 1.1 |
| CCCCCCCCCC(=O)N[C@@H](Cc1c[nH]c2ccccc12)C(=O)N[C@H](CC(N)=O)C(=O)N[C@@H](CC(=O)O)C(=O)N[C@@H]1C(=O)NCC(=O)N[C@@H](CCCNC(=O)c2c(N)ccc3ccccc23)C(=O)N[C@@H](CC(=O)O)C(=O)N[C@H](C)C(=O)N[C@@H](CC(=O)O)C(=O)NCC(=O)N[C@H](CO)C(=O)N[C@@H]([C@H](C)CC(=O)O)C(=O)N[C@@H](CC(=O)c2ccccc2N)C(=O)O[C@@H]1C [listing 1 of 2 here] | – | – | – | – | 0.3 | 230 | 2820 | 5.6 | 0.143 | 4 | – |
| CCCCCCCCCC(=O)N[C@@H](Cc1c[nH]c2ccccc12)C(=O)N[C@H](CC(N)=O)C(=O)N[C@@H](CC(=O)O)C(=O)N[C@@H]1C(=O)NCC(=O)N[C@@H](CCCNC(=O)c2c(N)ccc3ccccc23)C(=O)N[C@@H](CC(=O)O)C(=O)N[C@H](C)C(=O)N[C@@H](CC(=O)O)C(=O)NCC(=O)N[C@H](CO)C(=O)N[C@@H]([C@H](C)CC(=O)O)C(=O)N[C@@H](CC(=O)c2ccccc2N)C(=O)O[C@@H]1C [listing 2 of 2 here] | 0.78 (≈ 0.436 µM) | 6.25 (≈ 3.49 µM) | 0.78 (≈ 0.436 µM) | 6.25 (≈ 3.49 µM) | – | – | – | – | – | – | 2.1 |
| CCCCCCCCCC(=O)N[C@@H](Cc1c[nH]c2ccccc12)C(=O)N[C@H](CC(N)=O)C(=O)N[C@@H](CC(=O)O)C(=O)N[C@@H]1C(=O)NCC(=O)N[C@@H](CCCNC(=N)N)C(=O)N[C@@H](CC(=O)O)C(=O)N[C@H](C)C(=O)N[C@@H](CC(=O)O)C(=O)NCC(=O)N[C@H](CO)C(=O)N[C@@H]([C@H](C)CC(=O)O)C(=O)N[C@@H](CC(=O)c2ccccc2N)C(=O)O[C@@H]1C [listing 1 of 2 here] | – | – | – | – | 1.08 | 254 | 766 | 2.1 | 0.198 | 0.5 | – |
| CCCCCCCCCC(=O)N[C@@H](Cc1c[nH]c2ccccc12)C(=O)N[C@H](CC(N)=O)C(=O)N[C@@H](CC(=O)O)C(=O)N[C@@H]1C(=O)NCC(=O)N[C@@H](CCCNC(=N)N)C(=O)N[C@@H](CC(=O)O)C(=O)N[C@H](C)C(=O)N[C@@H](CC(=O)O)C(=O)NCC(=O)N[C@H](CO)C(=O)N[C@@H]([C@H](C)CC(=O)O)C(=O)N[C@@H](CC(=O)c2ccccc2N)C(=O)O[C@@H]1C [listing 2 of 2 here] | 0.78 (≈ 0.469 µM) | 6.25 (≈ 3.76 µM) | 0.78 (≈ 0.469 µM) | 12.5 (≈ 7.52 µM) | – | – | – | – | – | – | 0.17 |
| CCCCCCCCCC(=O)N[C@@H](Cc1c[nH]c2ccccc12)C(=O)N[C@H](CC(N)=O)C(=O)N[C@@H](CC(=O)O)C(=O)N[C@@H]1C(=O)NCC(=O)N[C@@H](CCCNC(=O)C2Cc3c([nH]c4ccccc34)CN2)C(=O)N[C@@H](CC(=O)O)C(=O)N[C@H](C)C(=O)N[C@@H](CC(=O)O)C(=O)NCC(=O)N[C@H](CO)C(=O)N[C@@H]([C@H](C)CC(=O)O)C(=O)N[C@@H](CC(=O)c2ccccc2N)C(=O)O[C@@H]1C (some centres undefined) [listing 1 of 2 here] | – | – | – | – | – | 418 | – | > 6 | – | 6 | – |
| CCCCCCCCCC(=O)N[C@@H](Cc1c[nH]c2ccccc12)C(=O)N[C@H](CC(N)=O)C(=O)N[C@@H](CC(=O)O)C(=O)N[C@@H]1C(=O)NCC(=O)N[C@@H](CCCNC(=O)C2Cc3c([nH]c4ccccc34)CN2)C(=O)N[C@@H](CC(=O)O)C(=O)N[C@H](C)C(=O)N[C@@H](CC(=O)O)C(=O)NCC(=O)N[C@H](CO)C(=O)N[C@@H]([C@H](C)CC(=O)O)C(=O)N[C@@H](CC(=O)c2ccccc2N)C(=O)O[C@@H]1C (some centres undefined) [listing 2 of 2 here] | 0.78 (≈ 0.429 µM) | 3.1 (≈ 1.7 µM) | 0.78 (≈ 0.429 µM) | 12.5 (≈ 6.87 µM) | – | – | – | – | – | – | 1.75 |
| CCCCCCCCCC(=O)N[C@@H](Cc1c[nH]c2ccccc12)C(=O)N[C@H](CC(N)=O)C(=O)N[C@@H](CC(=O)O)C(=O)N[C@@H]1C(=O)NCC(=O)N[C@@H](CCCNC(=O)c2ccccc2N)C(=O)N[C@@H](CC(=O)O)C(=O)N[C@H](C)C(=O)N[C@@H](CC(=O)O)C(=O)NCC(=O)N[C@H](CO)C(=O)N[C@@H]([C@H](C)CC(=O)O)C(=O)N[C@@H](CC(=O)c2ccccc2N)C(=O)O[C@@H]1C | 1.56 (≈ 0.897 µM) | 6.25 (≈ 3.59 µM) | 0.78 (≈ 0.448 µM) | 12.5 (≈ 7.18 µM) | – | – | – | – | – | – | 1.1 |
| CCCCCCCCCC(=O)N[C@@H](Cc1c[nH]c2ccccc12)C(=O)N[C@H](CC(N)=O)C(=O)N[C@@H](CC(=O)O)C(=O)N[C@@H]1C(=O)NCC(=O)N[C@@H](CCCNC(=O)C(N)CCc2c[nH]c3ccccc23)C(=O)N[C@@H](CC(=O)O)C(=O)N[C@H](C)C(=O)N[C@@H](CC(=O)O)C(=O)NCC(=O)N[C@H](CO)C(=O)N[C@@H]([C@H](C)CC(=O)O)C(=O)N[C@@H](CC(=O)c2ccccc2N)C(=O)O[C@@H]1C (some centres undefined) [listing 1 of 2 here] | – | – | – | – | 0.883 | 258 | 936 | 2.8 | 0.216 | 1 | – |
| CCCCCCCCCC(=O)N[C@@H](Cc1c[nH]c2ccccc12)C(=O)N[C@H](CC(N)=O)C(=O)N[C@@H](CC(=O)O)C(=O)N[C@@H]1C(=O)NCC(=O)N[C@@H](CCCNC(=O)C(N)CCc2c[nH]c3ccccc23)C(=O)N[C@@H](CC(=O)O)C(=O)N[C@H](C)C(=O)N[C@@H](CC(=O)O)C(=O)NCC(=O)N[C@H](CO)C(=O)N[C@@H]([C@H](C)CC(=O)O)C(=O)N[C@@H](CC(=O)c2ccccc2N)C(=O)O[C@@H]1C (some centres undefined) [listing 2 of 2 here] | 0.78 (≈ 0.428 µM) | 1.56 (≈ 0.857 µM) | 0.78 (≈ 0.428 µM) | 3.1 (≈ 1.7 µM) | – | – | – | – | – | – | 0.15 |
| CCCCCCCCCC(=O)N[C@@H](Cc1c[nH]c2ccccc12)C(=O)N[C@H](CC(N)=O)C(=O)N[C@@H](CC(=O)O)C(=O)N[C@@H]1C(=O)NCC(=O)N[C@@H](CCCN)C(=O)N[C@@H](CC(=O)O)C(=O)N[C@H](C)C(=O)N[C@@H](CC(=O)O)C(=O)NCC(=O)N[C@H](CO)C(=O)N[C@@H]([C@H](C)CC(=O)O)C(=O)N[C@@H](CC(=O)c2ccccc2N)C(=O)O[C@@H]1C | 0.39 (≈ 0.241 µM) | 1.56 (≈ 0.963 µM) | 0.78 (≈ 0.481 µM) | 1.56 (≈ 0.963 µM) | 1.7 | 214 | 489 | 1.7 | 0.251 | 0.5 | 0.22 |
